Measured values published in publication PMC11071649, “Synthesis and Selective Anticancer Activity Evaluation of 2-phenylacrylonitrile Derivatives as Tubulin Inhibitors” (Current Medicinal Chemistry, 2024).
Read-outs that look alike come from different tables or passages of the source.

Tests used:
Assay type in all cases: cell-based, human
A549 lung cancer cell = experiment: MTT anti-proliferative assay, A549; conditions: MTT, 48 h
Description: (§1) The anti-proliferation activities of the synthesized analogs were assessed by an in vitro MTT assay conducted on thirteen human cell lines. Their cytotoxic activities were evaluated by measuring the inhibition of net cell growth. […]
(§2) 1.6. Cell lines and cell culture
(§3) MTT was purchased from Sigma-Aldrich Co. (St. Louis, MO, USA). The PI and Annexin V-FITC apoptosis detection kit were purchased from Invitrogen (Eugene, OR, USA). All human cell lines were used in this study. […]
(§4) cell, MCF-7 breast cancer cell, MCF-10A normal breast cell, Raji B lymphoblastoid cell and diffuse large B-cell lymphoma SU-DHL-10 cell were initially purchased from American Type Culture Collection (ATCC, Manassas, Virginia). media, DMEM, and FBS were provided from Gibco Company.
(§5) 1.7. Cell growth inhibition assay (MTT assay)
(§6) The experiment was carried out according to the method of reference. Briefly, cells were plated in 96-well plates at a den- […]
(§7) the anti-proliferative activities were determined by MTT assay. […]
(§8) (Becton-Dickinson, Franklin Lakes, NJ). […]

AGS gastric cancer cell = experiment: MTT anti-proliferative assay, AGS; conditions: for IC50: MTT, 48 h
Description: as §1, §2, §3, §4, §5, §6, §7, §8

[1] = test system: BEL-7402 liver cancer cell; experiment: MTT anti-proliferative assay, BEL-7402; conditions: for IC50: MTT, 48 h
Description: as §1, §2, §3, §4, §5, §6, §7, §8

[2] = test system: HCT116 colectal cancer cell; experiment: MTT anti-proliferative assay, HCT116; conditions: for IC50: MTT, 48 h, read-out: IC50 HCT-116
Description: as §1, §2, §3, §4, §5, §6, §7, §8

[3] = test system: HeLa cervical cancer cell; experiment: MTT anti-proliferative assay, HeLa; conditions: MTT, 48 h
Description: as §1, §2, §3, §4, §5, §6, §7, §8

HepG2 hepatoma cell = experiment: MTT anti-proliferative assay, HepG2; conditions: MTT, 48 h; read-out: IC50 HepG-2
Description: as §1, §2, §3, §4, §5, §6, §7, §8

L-02 normal liver cell = experiment: MTT assay, L-02 normal cells; conditions: 48 h
Description: as §1, §2, §3, §4, §5, §6, §7, §8

[4] = test system: MGC-803 late stage differentiation gastric cancer cell; experiment: MTT anti-proliferative assay, MGC-803; conditions: for IC50: MTT, 48 h
Description: as §1, §2, §3, §4, §5, §6, §7, §8

MCF-7 breast cancer cell = experiment: MTT anti-proliferative assay, MCF-7; conditions: for IC50: MTT, 48 h
Description: as §1, §2, §3, §4, §5, §6, §7, §8

[5] = test system: MCF-10A normal breast cell; experiment: MTT assay, MCF-10A normal cells; conditions: 48 h
Description: as §1, §2, §3, §4, §5, §6, §7, §8

[6] = test system: Raji B lymphoblastoid cell; experiment: MTT anti-proliferative assay, Raji
Description: as §1, §2, §3, §4, §5, §6, §7, §8

[7] = test system: SGC-7901 early differentiation gastric cancer cell; experiment: MTT anti-proliferative assay, SGC-7901; conditions: for IC50: MTT, 48 h
Description: as §1, §2, §3, §4, §5, §6, §7, §8

[8] = test system: diffuse large B-cell lymphoma SU-DHL-10 cell; experiment: MTT anti-proliferative assay, SU-DHL-10
Description: as §1, §2, §3, §4, §5, §6, §7, §8

[9] = MTT, 48 h, read-out: IC50 SU-DHL-10

Compound	IC50 (A549 lung cancer cell) [µM]	IC50 (AGS gastric cancer cell) [µM]	IC50 [1] [µM]	IC50 [2] [µM]	IC50 [3] [µM]	IC50 (HepG2 hepatoma cell) [µM]	IC50 (L-02 normal liver cell) [µM]	IC50 [4] [µM]	IC50 (MCF-7 breast cancer cell) [µM]	IC50 [5] [µM]	SI (selectivity index), IC50 (L-02)/IC50 (Raji) [6]	IC50 [7] [µM]	IC50 ([6]; MTT, 48 h, read-out: IC50 Raji) [µM]	IC50 [8, 9] [µM]	also measured
N#C/C(=C\c1ccc(/C=C(\C#N)c2ccc(C(F)(F)F)cc2)cc1)c1ccc(C(F)(F)F)cc1 [Compound 1f2w]	> 100	> 100	> 100	> 100	> 100	> 100	> 100	> 100	> 100	> 100	> 2083	> 100	–	–	IC50 ([6]; read-out: IC50 Raji cells): 0.048 µM; SI (selectivity index), IC50 (L-02)/IC50 (SU-DHL-10) [8]: > 4545; IC50 ([8]; read-out: IC50 SU-DHL-10 cells): 0.022 µM
N#C/C(=C\c1ccco1)c1ccc(C(F)(F)F)cc1 [Compound 1f3a]	> 100	> 100	> 100	> 100	> 100	> 100	> 100	> 100	> 100	> 100	–	> 100	> 100	> 100	–
CCCOc1ccc(/C=C(\C#N)c2cccc(OC(F)(F)F)c2)cc1 [Compound 1b2k]	> 100	> 100	> 100	> 100	> 100	> 100	> 100	> 100	> 100	> 100	–	> 100	> 100	> 100	–
COc1cc(/C=C(\C#N)c2ccc(C(F)(F)F)cc2)cc(OC)c1OC [Compound 1f2u]	> 100	> 100	> 100	> 100	> 100	> 100	> 100	> 100	> 100	92.5 ± 10.2	–	> 100	> 100	> 100	–
CN(C)c1ccc(/C=C(\C#N)c2ccc(OC(F)(F)F)cc2)cc1 [Compound 1a2h]	> 100	69.6 ± 15.7	24.1 ± 2.8	8.7 ± 1.7	> 100	> 100	> 100	16.8 ± 0.7	> 100	> 100	> 1.4	19.7 ± 1.5	67.4 ± 31.7	> 100	SI (selectivity index), IC50 (L-02)/IC50 (AGS) (AGS gastric cancer cell): > 1.4; SI (selectivity index), IC50 (L-02)/IC50 (BEL-7402) [1]: > 4.1; SI (selectivity index), IC50 (L-02)/IC50 (HCT-116) [2]: > 11.4; SI (selectivity index), IC50 (L-02)/IC50 (MGC-803) [4]: > 5.9; SI (selectivity index), IC50 (L-02)/IC50 (SGC-7901) [7]: > 5.0
N#C/C(=C\c1ccc(Cl)cc1)c1ccc(C(F)(F)F)cc1 [Compound 1f2e]	> 100	> 100	> 100	> 100	> 100	> 100	> 100	> 100	> 100	> 100	–	> 100	> 100	> 100	–
CCN(CC)c1ccc(/C=C(\C#N)c2ccc(C)cc2)cc1 [Compound 1d2b]	> 100	24.1 ± 0.2	65.4 ± 2.5	3.1 ± 0.5	> 100	> 100	> 100	8.6 ± 0.04	52.3 ± 2.2	> 100	> 8.4	> 100	11.8 ± 0.4	42.6 ± 11.4	SI (selectivity index), IC50 (L-02)/IC50 (AGS) (AGS gastric cancer cell): > 4.1; SI (selectivity index), IC50 (L-02)/IC50 (BEL-7402) [1]: > 1.5; SI (selectivity index), IC50 (L-02)/IC50 (HCT-116) [2]: > 32.0; SI (selectivity index), IC50 (L-02)/IC50 (MGC-803) [4]: > 11.5; SI (selectivity index), IC50 (MCF-10A)/IC50 (MCF-7) (MCF-7 breast cancer cell): > 1.9; SI (selectivity index), IC50 (L-02)/IC50 (SU-DHL-10) [8]: > 2.3
